Patent US8097422B2, “Kir channel modulators” (Salk Institute for Biological Studies, priority 2007, dated 2012)
Changes are numbered by the printed parent chain.

Legend:
Assay type in all cases: cell-based
[1] = molecular target: T1, GIRK4 S143T mutant channel (GIRK4*) (Rattus norvegicus, UniProt P48548, S143T); experiment: whole-cell patch clamp, GIRK4 S143T (GIRK4*) channel; conditions: for modulation of GIRK4 S143T mutant channel, mean percentage change from basal: n=7; for activation of GIRK4*, mean percentage change from basal current: wild type GIRK4*, n=8
T1 construct: expressed in transfected cells; host or cells: HEK293 / HEK293T
T1 sequence (P48548 1-419 S143T): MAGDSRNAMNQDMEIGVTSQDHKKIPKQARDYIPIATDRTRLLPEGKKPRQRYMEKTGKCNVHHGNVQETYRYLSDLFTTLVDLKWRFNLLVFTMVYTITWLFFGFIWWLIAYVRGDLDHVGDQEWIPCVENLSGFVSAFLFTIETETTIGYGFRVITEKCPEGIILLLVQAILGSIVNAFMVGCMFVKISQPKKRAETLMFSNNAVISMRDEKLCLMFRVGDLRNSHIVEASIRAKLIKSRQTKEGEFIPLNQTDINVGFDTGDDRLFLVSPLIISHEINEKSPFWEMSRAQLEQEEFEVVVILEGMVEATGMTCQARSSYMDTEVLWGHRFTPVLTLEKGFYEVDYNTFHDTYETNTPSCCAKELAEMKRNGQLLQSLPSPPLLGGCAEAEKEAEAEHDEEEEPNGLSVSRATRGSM
Procedure: (§1) Point mutations were introduced by Quickchange site directed mutagenesis kit (Stratagene). The GIRK2 PIP mutant was generated by overlap-PCR method. […] Mutations were confirmed by automated DNA sequencing methods. […] Cells were plated in a 12 well dish, and were transiently transfected using Lipofectamine 2000 (Invitrogen). After 12-24 hrs, cells were re-plated to 12-mm glass coverslips coated with poly-D-[…] microgram/ml). […] The cells were co-transfected with 0.04 micrograms of eYFP cDNA to identify transfected cells. 0.8 micrograms of Muscarinic Receptor 2 (M2R) was also co-transfected for experiments with Carbachol. […] Whole-cell patch clamp recordings were performed 24-72 hrs after transfection. […] Alcohols, 5 μM Carbachol, and 1 mM BaCl2 (diluted in 20K solution) were applied from outside the cell with the rapid perfusion system (Warner Instruments). […] Current-voltage relationships also were obtained from the ramp protocol. This protocol was used to measure the inwardly rectifying currents at -100 mV and to ensure stability of recording by monitoring a reversal potential and inward rectification. […] Alcohol and Carbachol modulated currents were measured by averaging two consecutive current readings upon reaching steady state, and subtracting the averaged basal current before and after the application of modulator.

[2] = system: GIRK2 L257Y mutant channel; experiment: whole-cell patch clamp, GIRK2 L257Y mutant channel; conditions: n=9; for activation of GIRK2 L257Y, percentage change from basal current: alcohols as for wild type (100 mM)
Procedure: as §1

[3] = molecular target: T2, GIRK4* Leu252 to Tyr mutant channel (Rattus norvegicus, UniProt P48548, L252Y/S143T); experiment: whole-cell patch clamp, GIRK4* L252Y mutant channel; conditions: for activation of GIRK4* Leu252 to Tyr mutant, percentage change from basal: n=8
T2 construct: expressed in transfected cells; host or cells: HEK293 / HEK293T
T2 sequence (P48548 1-419 S143T/L252Y): T1 sequence (P48548 1-419 S143T) with L252Y
Procedure: as §1

GIRK2 PIP L257W mutant = molecular target: T3, GIRK2 PIP L257W mutant (Mus musculus, UniProt P48542, D228N/I234L/L257W/M344L/N231K); experiment: whole-cell patch clamp, GIRK2 PIP L257W mutant channel; conditions: for IC50: dose response, read-out: IC50 for inhibition of GIRK2 PIP L257W mutant; for inhibition of GIRK2 PIP L257W mutant channel, percentage inhibition: equimolar alcohol series (50 mM)
T3 construct: expressed in transfected cells; host or cells: HEK293 / HEK293T
T3 sequence (P48542 1-425 D228N/N231K/I234L/L257W/M344L): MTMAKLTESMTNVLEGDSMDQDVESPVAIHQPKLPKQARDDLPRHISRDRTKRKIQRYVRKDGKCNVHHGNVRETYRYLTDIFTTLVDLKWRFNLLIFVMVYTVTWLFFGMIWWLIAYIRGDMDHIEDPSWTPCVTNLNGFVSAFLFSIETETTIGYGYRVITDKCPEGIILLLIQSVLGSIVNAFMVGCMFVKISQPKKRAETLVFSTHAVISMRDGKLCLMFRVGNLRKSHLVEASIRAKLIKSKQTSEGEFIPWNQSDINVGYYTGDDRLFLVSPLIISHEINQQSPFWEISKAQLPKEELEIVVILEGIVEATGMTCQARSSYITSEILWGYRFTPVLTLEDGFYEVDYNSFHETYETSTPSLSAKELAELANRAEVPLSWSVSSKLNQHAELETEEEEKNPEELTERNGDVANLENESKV
Procedure: as §1

[4] = molecular target: T4, GIRK2 L257A mutant channel (Mus musculus, UniProt P48542, L257A); experiment: whole-cell patch clamp, GIRK2 L257A mutant channel; conditions: n=9; for activation of GIRK2 L257A, percentage change from basal current: alcohols as for wild type (100 mM)
T4 construct: expressed in transfected cells; host or cells: HEK293T
T4 sequence (P48542 1-425 L257A): T3 sequence (P48542 1-425 D228N/N231K/I234L/L257W/M344L) with N228D, K231N, L234I, W257A, L344M
Procedure: as §1

[5] = 5 μM Carbachol, M2R co-transfected

Row | Molecule | modulation of GIRK4 S143T mutant channel, mean percentage change from basal [1] [%] | activation of GIRK4*, mean percentage change from basal current [1] [%] | activation of GIRK2 L257Y, percentage change from basal current [2] [%] | activation of GIRK4* Leu252 to Tyr mutant, percentage change from basal [3] [%] | IC50 (GIRK2 PIP L257W mutant) [mM] | inhibition of GIRK2 PIP L257W mutant channel, percentage inhibition (GIRK2 PIP L257W mutant) [%] | activation of GIRK2 L257A, percentage change from basal current [4] [%] | Carb activation of GIRK4* wild type, % of basal current [1, 5] [%] | Carbachol activation, GIRK2 L257Y, percentage change from basal current [2, 5] [%] | Carb (G-protein mediated) activation, GIRK4* L252 Tyr ([3]; 5 μM Carbachol) [%] | Carbachol activated currents, GIRK2 L257A, percentage change from basal current [4, 5] [%]
1 | 1-propanol [1-PrOH] | 51±6 | 64±7 | 275±34 | 15±3 | ~5.1 | −92±1 | 467±44 |  |  |  | 
2 | CCO [EtOH, ethanol] | 35±4 | 36±3 | 92±10 | 20±3 |  | −20±2 | 132±9 |  |  |  | 
3 | C[N+](C)(C)CCOC(N)=O [Carbachol] |  |  |  |  |  |  |  | 231±38 | 38±11 | 110±14 | 36±6
4 | 1-butanol [1-BuOH] | 23±3 |  |  |  |  | −99±3 |  |  |  |  | 
5 | CC(O)CC(C)(C)O (racemic) [MPD, 2-methyl-2,4-pentanediol] | 87±12 | 113±14 | 73±10 |  | ~7.7 | −84±3 | 330±27 |  |  |  | 
